Test results taken from patent US20240327320A1, “NOVEL ROUTES OF CHEMICAL SYNTHESIS OF 20S(OH)D3, 20S,25(OH)2D3, 20S,23S(OH)2D3, AND 20S,23R(OH)2D3 AND THEIR MODIFICATION OF THE IMMUNE ACTIVITY OF PBMCS” (United State Government as represen ted by the Department …, priority 2023, published 2024).
Where two headings read alike, the source gives them in different places.

Experiments:
[1] = cited from earlier work
[2] = system: CD4 and CD8 T cells from human peripheral blood; experiment: T cell activation in PBMC, flow cytometry with TriMAP/FlowSOM; format: cell-based; conditions: 10^-7 M, 24 h, anti-CD3 and anti-CD28, compared to ethanol treated cells
Experimental: Human peripheral blood mononuclear cells (PBMC) from two healthy individuals were obtained from a pre-existing respository. Their use was approved by the University of Alabama at Birmingham Institutional Review Board (Human Subject Assurance Number FWA00005960) as an exempt protocol #4 (Dr C. Raman, P.I.). […] Informed consent is waived in accord with 45CFR46.116 (d). In 48 well plates, 0.5×10^6 PBMC/well were cultured in RPMI1640 containing, 5% charcoal adsorbed FBS and antibiotics and T cells were activated using […] anti-CD3 (clone 145-2C11) and 1 μg/ml anti-CD28 (clone 37.51) for 24 h (Janjetovic Z, et. al., (2021) Endocrinology 162(1), Chaiprasongsuk A, et. al., (2020) Free Radic Biol Med 155 87-98, Slominski A T, et. al., (2011) Am J Physiol Cell Physiol 300(3) C526-41, McGuire D J, et. al., (2014) Eur J Immunol 44(4) 1137-42, Sestero C M, et. al., (2012) J Immunol 189(6) 2918-30). The culture was treated with 10^-7 M 20S(OH)D3, 20S,25(OH)2D3, 20S,23S(OH)2D3, 20S,23R(OH)2D3 or 1α,25(OH)2D3 (Sigma-Aldrich, St. Louis, MO, USA) dissolved in ethanol and diluted in culture medium at the same time of addition of anti-CD3 and anti-CD28. The vehicle control comprised of 0.1% ethanol. At the end of assay the cells were stained with antibodies to CD4 (clone RPA-T4, BV-421), CD19 (clone HB19, BV-510), CD14 (clone HCD14, Alexa 700), CD137 (clone 4B4-1, BV605), CD8a (clone RPA-T8, FITC), ICOS (clone C398.4A, PE/Dazzle), PD1 (clone NAT105, PE), CD80 (clone 2D10, PerCP/Cy5.5), OX40 (clone ACT35, PE/Cy7), CD69 (clone FN50, APC), HLA-DR (clone L243, APC/Fire 750). All antibodies were from Biolegend except anti-CD8 was from Thermo Fisher. The stained cells were analyzed using a CytoFLEX (Beckman Coulter) flow cytometer.
For unbiased analysis of the multidimensional data, acomputational algorithm-based approaches was utilized (Quintelier K, et. al., (2021) Nature Protocols 16(8) 3775-3801). The flow cytometry standard (FCS) data files from each individual and treatment (two individuals, six treatments including ethanol, a total of 12 data files) were processed through the following workflow—compensation, gating on live cells, gating for single cells and subtraction of CD19+(B cells) and CD14+(monocytes). B cells and monocytes were removed from the analysis because only T cells (CD4+ and CD8+) are activated by anti-CD3 and anti-CD28. After these initial gating steps, a key word was added to each of the 12 FCS files, down sampled to 50,000 events/sample and concatenated. Down sampling ascertains that each sample is equally weighted, and concatenation ascertains that statistical analysis is applied equally. The concatenated files were first subjected to TriMAP analysis, a computational algorithm that clusters populations based on triplet relatedness followed by FlowSOM algorithm-based clustering (Quintelier K, et. al., (2021) Nature Protocols 16(8) 3775-3801). To perform these analyses, plugins within FlowJo (BD, CA, USA) were used.
T cells in peripheral blood from two healthy individuals were activated with anti-CD3 and anti-CD28 in the absence (ethanol) or presence of 10^−7 M of each of the vitamin D3 secosteroids for 24 h. The cells were stained for lineage markers (CD4, CD8, CD19, CD14) and a panel of activation induced markers (CD69, ICOS, OX40, CD137, PD1, HLADR) and expression data were collected using a flow cytometer. The gating strategy was live, single cell followed by CD4 and CD8 T cell populations. […]

Row | Compound | calcemic activity / toxicity ([1]; in vivo) | CD4 T cells of population 4 (down modulated CD4, increased CD69 and ICOS) [2] | calcemic activity / toxicity ([1]; literature, at the same doses)
1 | C=C1/C(=C\C=C2/CCC[C@]3(C)[C@@H]([C@H](C)CCCC(C)(C)O)CC[C@@H]23)C[C@@H](O)C[C@@H]1O [1α,25(OH)2D3, reference compound] | highly toxic | fewer cells | –
2 | C=C1CC[C@H](O)C/C1=C/C=C1\CCC[C@@]2(C)[C@H]1CC[C@@H]2[C@@](C)(O)CC(O)CC(C)C (stereo partly shown) [20S,23(OH)2D3, 20,23-dihydroxyvitamin D3] | – | no effect on this population | –
3 | 25(OH)D3 [reference compound] | – | – | highly toxic
